The source of these data is a melting point compilation (Tetko et al.).

Usually melting point stands for the temperature of the solid-liquid transition.

`COc1ccc(NC(=O)Cn2cc(N)cn2)cc1` yielded a melting point of 151 to 153 °C.
For `N#Cc1ccc(C=C2CCn3c2nc2cc(C(=O)O)ccc2c3=O)cc1` the value was 300 to 302 °C.
In turn, `Nc1ccc(Cl)cc1-c1nc(C2CCCC2)no1` showed a melting point of 107 to 109 °C.
In turn, `CN(C)c1ncnc(Cl)c1N` yielded a melting point of 114 to 116 °C.
As for `COc1cc(C#N)ccc1OCCCl`, the figure is 95 to 97 °C; as for `CC1(c2ccc(Br)cc2)CC(=O)OC1=O` (stereo not drawn), 69 to 71 °C.
As for `O=C(O)c1cn(-c2ccccc2)nc1-c1cccc2ccccc12`, the figure is 186 to 188 °C.
As for `CCOC(=O)c1sc2nc(C(C)Cl)[nH]c(=O)c2c1C` (stereo not drawn), the figure is 167 to 169 °C; as for `Nc1ccc(CC(=O)Nc2ccccc2F)cc1`, 110 to 112 °C.
For the molecule `Cc1ccc2oc(=O)[nH]c2c1`, the melting point lay in the range of 130 to 132 °C.
For `Cc1nccn1-c1ccc(Cl)nn1` the value was 122 to 124 °C; for `O=C(O)c1cccc(S(=O)(=O)N2CCc3ccccc3C2)c1`, 55 to 58 °C; for `Cc1ccc(-c2csc(S)n2)cc1`, 192 to 194 °C.
`Cc1cc(/C=C/C(=O)O)c(C)n1-c1ccc2c(c1)OCO2` displayed a melting point of 194 to 196 °C.
Take `CCOc1cc(/C=C/C(=O)O)ccc1OC`: the melting point was in the range of 164 to 166 °C.
For `COc1cc(N)ccc1S(=O)(=O)N1CCCC1` the value was 145 to 147 °C.
For `Cc1ccc([N+](=O)[O-])c2cccnc12` the value was 87 to 89 °C; for `COc1cc(C=O)c([N+](=O)[O-])cc1OCc1ccccc1`, 130 to 132 °C.
In the case of `O=C(O)c1cccc(S(=O)(=O)Nc2ccc(I)cc2)c1`, the melting point lay in the range of 260 to 262 °C.
For `COc1ccc(N2CC(C(=O)O)CC2=O)c(OC)c1` (stereo not drawn) the value was 183 to 185 °C; for `CC1C(=O)Nc2ccc(S(=O)(=O)Cl)cc21` (stereo not drawn), 164 to 168 °C; for `Cc1csc(-c2cccc(O)c2)n1`, 108 to 110 °C.
For `O=C(O)Cc1csc(-c2ccc(Cl)cc2)n1` the value was 255 to 257 °C; for `CNc1ncc(C(=O)O)s1`, 159 to 161 °C; for `Clc1cc(SCc2ccccc2)ncn1`, 71 to 73 °C.
For `CC(C)CNS(=O)(=O)c1ccc(Br)c(C(=O)O)c1` the value was 174 to 176 °C.
The molecule `CN(CC(=O)O)C(=O)c1cccs1` registered a melting point of 101 to 103 °C.
As for `O=C(O)Cc1ccc(-n2cnnn2)cc1`, the figure is 171 to 173 °C; as for `O=C1COCC(=O)N1`, 141 to 143 °C; as for `Nc1cccc2c1CN(CCO)C2`, 109 to 111 °C.
For `Cc1ccc(S(=O)(=O)CC(=O)CBr)cc1` the value was 133 to 135 °C.
As for `COCCOc1cccc(C(=O)O)c1`, the figure is 80 to 82 °C; as for `Nn1cnc2ccc(Br)cc2c1=O`, 230 to 232 °C.
In turn, `CN1CCC(n2nccc2N)CC1` gave a melting point of 98 to 100 °C.
For `Cc1nn(-c2ccccc2)c(C(F)F)c1C(=O)O` the value was 206 to 208 °C.
For the molecule `O=C(O)CNC1=NCCCCC1`, the melting point lay within 163 to 165 °C.
As for `Nc1ccc(-c2nccn2C(F)F)cc1`, the figure is 84 to 86 °C.
As for `Cc1nnc(S)n1CCS(C)(=O)=O`, the figure is 193 to 195 °C; as for `O=C(Cn1cc(C(=O)O)cn1)NC1CCCCC1`, 247 to 249 °C.
As for `O=S(=O)(Cl)c1ccc2nc(Cl)sc2c1`, the figure is 98 to 100 °C; as for `Nc1ccn(Cc2cn3ccccc3n2)n1`, 144 to 146 °C; as for `Cc1nc2cc(Cl)ccc2c(=O)n1N`, 202 to 204 °C.
In turn, `CC(C)(C(=O)O)C(O)c1ccc(OCc2ccccc2)cc1` (stereo not drawn) returned a melting point of 167 to 169 °C.
As for `O=c1[nH]c(CCl)nc2scc(-c3ccc(Cl)cc3)c12`, the figure is 124 to 126 °C.
As for `Cc1cnc2c(c1)NCCO2`, the figure is 109 to 111 °C.
As for `CCNc1ccc(C(=O)OCC)cc1[N+](=O)[O-]`, the figure is 91 to 95 °C; as for `NC1(C(=O)O)CCCCC1`, 300 to 302 °C; as for `Cc1cc(Cl)n2c(nc3ccccc32)c1C#N`, 210 to 212 °C.
Molecule `Cc1ccc(N)cc1S(=O)(=O)N1CCOCC1` came in with a melting point of 186 to 188 °C.
`CC(Cl)C(=O)NC(=O)Nc1ccccc1F` (stereo not drawn) returned a melting point of 135 to 137 °C.
Consider `O=C(O)c1csc2c1CCCC2`, for which the melting point was 159 to 161 °C.
For `O=C(O)c1cc(=O)n(-c2ccc([N+](=O)[O-])cc2)[nH]1` the value was 225 to 227 °C; for `NC(=S)C1CCCCC1`, 115 to 117 °C.
As for `O=C(O)C1CCc2ccccc21` (stereo not drawn), the figure is 54 to 56 °C; as for `O=C(O)c1ccccc1COc1ccccc1C(=O)O`, 199 to 201 °C; as for `COC(=O)c1c(N)sc(C)c1C`, 124 to 126 °C.
For `CNC(=O)CC(=O)O` the value was 104 to 106 °C; for `COC(=O)c1cc(C)cc([N+](=O)[O-])c1N`, 106 to 108 °C; for `O=C1NC2(CCNCC2)NC12CCCCC2`, 276 to 278 °C.
The molecule `Cn1ccnc1Sc1ccc(N)cc1` returned a melting point of 117 to 119 °C.
As for `O=Cc1c(Cl)c2ccccc2oc1=O`, the figure is 113 to 115 °C.
Regarding `COC(=O)CCNc1ccc(F)cc1[N+](=O)[O-]`, the melting point was in the range of 76 to 78 °C.
For `Nc1cc(-c2c(F)cccc2F)no1` the value was 114 to 116 °C; for `Cc1sc([N+](=O)[O-])cc1[N+](=O)[O-]`, 81 to 83 °C.
For `COc1cc(C=O)ccc1OC(=O)c1ccc(F)cc1` the value was 100 to 102 °C; for `COC(=O)c1ccc(C(=O)O)cn1`, 210 to 212 °C.
For `CC(C)CN(C(=O)CCl)c1c(N)n(CC(C)C)c(=O)[nH]c1=O` the value was 153 to 155 °C.
In the case of `COc1ccc(S(=O)(=O)Cl)cc1C(=O)O`, the melting point was in the range of 142 to 144 °C.
For `O=C(O)Cc1csc(-c2ccc3c(c2)OCO3)n1` the value was 175 to 177 °C.
For `CC(C)(Oc1cccc(Cl)c1)C(=O)O` the value was 59 to 61 °C; for `Cc1nn(CC(=O)OC(C)C)c(C)c1C=O`, 104 to 106 °C.
With `Nc1nc(CN2CCN(Cc3ccccc3)CC2)cs1`, the melting point was in the range of 110 to 112 °C.
As for `CN(C)S(=O)(=O)c1cccc(CCl)c1`, the figure is 45 to 47 °C.
Regarding `Nc1cccc(-c2nnc3n2CCCCC3)c1`, the melting point was 200 to 202 °C.
For `OCc1ccc(N2CCN(c3ncccn3)CC2)c(F)c1` the value was 114 to 116 °C.
As for `O=[N+]([O-])c1ccc(Cl)c(S(=O)(=O)Cl)c1`, the figure is 85 to 87 °C; as for `CN1C(=O)CCC(C(=O)O)C1c1cccs1` (stereo not drawn), 154 to 156 °C; as for `COc1ccc(N2CCCNC(=O)C2)cc1`, 172 to 174 °C.
As to `CCOC(=O)/C(C#N)=C\Nc1cc(F)ccc1F`, the melting point is 164 to 166 °C.
The molecule `O=C(CCl)NCCc1cccs1` returned a melting point of under 17 °C.
As for `NS(=O)(=O)c1ccc(Br)c(C(=O)O)c1`, the figure is 231 to 233 °C; as for `Cc1c(NC(=S)Nc2c(C)n(C)n(-c3ccccc3)c2=O)c(=O)n(-c2ccccc2)n1C`, 93 to 95 °C.
For `CC1CCCC(C)N1C(=O)c1cc(Cl)ccc1N` (stereo not drawn) the value was 169 to 171 °C; for `CC(Cl)C(=O)Nc1ccc(Cl)cn1` (stereo not drawn), 88 to 90 °C.
The molecule `Nc1nc(=O)c2ccccc2s1` came in with a melting point of 274 to 276 °C.
For `NCC1CCN(C(=O)c2ccccc2)CC1` the value was 70 to 72 °C; for `N#Cc1ccc(CN2CCc3ccccc32)cc1`, 76 to 78 °C; for `CNC(=S)NNC(=O)c1ccccc1`, 181 to 183 °C.
For `CCOC(=O)NCCC(=O)O` the value was 47 to 49 °C; for `CCOC1CCN(C(=O)Nc2cccc(C(C)=O)c2)CC1`, 95 to 97 °C; for `N#CCS(=O)(=O)c1ccc(C(=O)O)cc1`, 236 to 238 °C.
In turn, `C=CCNC(=O)c1nc(C(=O)O)cs1` showed a melting point of 147 to 149 °C.
As for `CCOC(=O)c1nnc(-c2ccccc2)o1`, the figure is 69 to 71 °C; as for `O=C(O)c1cccc(S(=O)(=O)Nc2ccccc2-c2ccccc2)c1`, 164 to 166 °C; as for `O=C(O)CN1C(=O)c2cccnc2C1=O`, 239 to 241 °C.
For `O=C(O)C1CCCN1C1CCNCC1` (stereo not drawn) the value was 197 to 199 °C.
As for `CS(=O)(=O)CC1(CC(=O)O)CC1`, the melting point lay within 89 to 91 °C.
For `CC1CC(C(=O)O)CC(C)(C)C1` (stereo not drawn) the value was 39 to 41 °C; for `NS(=O)(=O)c1ccc([N+](=O)[O-])s1`, 139 to 141 °C; for `CC1(C)CC(=O)c2cncnc2C1`, 67 to 69 °C.
The molecule `COC(=O)c1cc2c(Br)cccc2[nH]1` returned a melting point of 159 to 161 °C.
Molecule `COc1ccccc1OCC(=O)Nc1cccc(N)c1` registered a melting point of 104 to 106 °C.
As for `NC1CCN(C(=O)C2CC2)CC1`, the figure is 53 to 55 °C.
For `O=C(O)c1ccc(=O)n(-c2ccc(F)cc2)c1` the value was 299 to 301 °C.
As for `Oc1ccccc1OCc1cscn1`, the figure is 120 to 122 °C; as for `CCOC(=O)c1cnc2c(OC)ccc(OC)c2c1Cl`, 87 to 89 °C.
`CCCOc1cccc(CC(=O)O)c1` returned a melting point of 88 to 90 °C.
As for `C=CCNc1ncc(C(=O)O)s1`, the figure is 169 to 171 °C.
For `Nc1ccc(NCc2ccccn2)cc1` the value was 89 to 91 °C; for `Nc1cc2c(cc1[N+](=O)[O-])OCCO2`, 150 to 152 °C.
As for `S=c1cc[nH]c2ccccc12`, the melting point lay within 159 to 161 °C.
Turning to `CN(C)C(=O)c1cc(S(=O)(=O)Cl)cn1C`, the melting point lay in the range of 105 to 107 °C.
In turn, `Cc1cc(C(=O)CCl)c(C)n1-c1ccc(F)c(Cl)c1` displayed a melting point of 115 to 117 °C.
As for `CC(C)(C)n1nc(C(=O)O)cc1C1CC1`, the figure is 119 to 121 °C; as for `Cc1nn(-c2ccccc2)cc1C(=O)O`, 192 to 194 °C; as for `NC(=S)C1CN(C(=O)OCc2ccccc2)CCO1` (stereo not drawn), 147 to 149 °C.
As for `O=C(NCc1cccc(Cl)c1)c1ccc(F)cc1`, the figure is 59 to 61 °C; as for `O=C(O)CCSCC(=O)Nc1ccc(Br)cc1`, 148 to 150 °C.
